For test [1], the system named is MCF-7 cells. In words: Mitochondrial Outer Membrane Potential (MOMP) by flow cytometry. The test is classed as cell-based, human. To be noted: 10 μM PL, AP; 100 mM H2O2 positive control; versus untreated cells. As to the method:
FIG. 2: Mode of induction in MCF-7 cells after treatment with AP and PL was determined by measuring changes in MOMP and levels of apoptosis-associated proteins. The cells were incubated with 10 μM AP and PL for different time intervals to capture the timeline of apoptosis induction in MCF-7 cells. The changes in MOMP were measured using flow cytometry after treating MCF-7 cells with PL and AP for 1, 2 and 4 h (A). The alteration in expression of several apoptosis-associated proteins were determined using western blotting after incubating MCF-7 cells for 1, 2, 4, 6 h with PL (C, E) and AP (D. F).
The changes in Mitochondrial Outer Membrane Potential (MOMP) and proteins involved in the apoptotic cascade were assessed (FIG. 2).
(In general: Flow cytometry measures light scatter and fluorescence of single cells or particles in a stream.)

Test [2] relates to MCF-7 CETP siRNA cells. In words: MMP, caspase-3/7 activity and apoptosis in CETP knockdown MCF-7 cells. Type of test: cell-based, human. To be noted: 25 μM tamoxifen, 24 h, CETP knockout cells. As to the method: FIG. 10: The effect of CETP mRNA silencing on MMP (A), Capase-3/7 activity (B) and apoptosis in MCF-7 (C) and BJ (D) untransfected, cntl siRNA and CETP knockout cells after treatment with 10 μM PL or AP. Values represent the means±SD of three independent experiments.
FIG. 12: The effect of CETP mRNA knockout on Capase-3/7 activity (A) and apoptosis (B) in MCF-7 cntl siRNA and CETP knockout cells after treatment with 25 μM tamoxifen for 24 h. Values represent the means±SD of three independent experiments.
Since, as shown above, CETP is required for optimal growth of MCF-7 cells, we further hypothesized that CETP may help cancer cell to resist/escape apoptotic signals thus preventing cell death. Several apoptotic markers such as MOMP, phosphatidylserine exposure and caspase-3/7 activity were tested to establish a link between CETP and apoptosis.
Next, we intended to see if CETP silencing increased sensitivity of MCF-7 cells to apoptosis.
To test if effect of CETP knockout on apoptosis in MCF-7 is limited to AP, we treated the CETP knockout MCF-7 cells with tamoxifen (a known first line drug for breast cancer treatment). […] This observation was not limited to PL and AP as similar observations were made in CETP knockdown cells treated with tamoxifen (FIG. 12).

On to `OO` [H2O2], for which, in test [1], the “MOMP, fluorescence in the FL-2 channel” value is on record as “lower fluorescent values”.
With `CC/C(=C(\c1ccccc1)c1ccc(OCCN(C)C)cc1)c1ccccc1` [tamoxifen], the caspase-3/7 activity result in test [2] is “significant increase”.

(Values after patent US10485769B2, “Cholesteryl ester transfer protein (CETP) inhibition in the treatment of cancer” (KING ABDULLAH UNIVERSITY OF SCIENCE AND TECHNOLOGY, priority 2015, dated 2019).)
